Measured values as given in ChEMBL document CHEMBL1201862, “PubChem BioAssay data set” (2004).
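1) Cells in 96-well plates. 2) Compound, 48 h, 5 concentrations. 3) Linear interpolation between surrounding doses. 4) Unreached endpoint = highest concentration. GI50: concentration for 50% inhibition of growth.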 Active and inactive are the calls of the source. No stated cut-off is given here; in the data, active = GI50 up to about 1.1 µM and inactive = higher.

Legend:
Experiment in all cases: DTP human tumour cell line panel, 48 h
[1] = test system: PC-3
[2] = test system: SF-295
[3] = test system: DU-145
[4] = test system: SK-OV-3
[5] = test system: HOP-92
[6] = test system: KM12
[7] = test system: HT-29
[8] = test system: CAKI-1
[9] = test system: HCT-116
[10] = test system: COLO 205
[11] = test system: T47D
[12] = test system: TK-10
[13] = test system: SK-MEL-5
[14] = test system: RPMI-8226
[15] = test system: OVCAR-3
[16] = test system: RXF 393
[17] = test system: NCI-H460
[18] = test system: M14
[19] = test system: BT-549
[20] = test system: K562

Measured: GI50

CC1C(c2ccc3c(c2)OCO3)c2cc3c(cc2OC1N1CCOCC1)OCO3 (stereo not given)
inactive: [1] 25.9 µM | [2] 24 µM | [3] 27.8 µM | [4] 49.9 µM | [5] 16.5 µM | [6] 20.5 µM | [7] 28.7 µM | [8] 15.2 µM | [9] 16 µM | [10] 21.1 µM | [11] 13.6 µM | [12] 29.1 µM | [13] 17 µM | [14] 21 µM | [15] 20 µM | [16] 20.4 µM | [17] 29.2 µM | [18] 24.7 µM | [19] 20 µM | [20] 7.41 µM

c1cc2c(cc1C(N1CCNCC1)N1CCNCC1)OCO2
inactive: [1] > 100 µM | [2] > 100 µM | [3] > 100 µM | [4] > 100 µM | [5] > 100 µM | [6] > 100 µM | [7] > 100 µM | [8] > 100 µM | [9] > 100 µM | [10] > 100 µM | [11] > 100 µM | [12] > 100 µM | [13] > 100 µM | [14] 40.9 µM | [15] > 100 µM | [16] > 100 µM | [17] > 100 µM | [18] > 100 µM | [19] > 100 µM | [20] 2.42 µM

Cc1ccc(-c2cc(-c3ccco3)c(C#N)c(=S)[nH]2)cc1
inactive: [1] 28.3 µM | [2] 38.7 µM | [3] 93.5 µM | [4] 39.9 µM | [5] 99.5 µM | [6] 63.2 µM | [7] 92.3 µM | [8] > 100 µM | [9] 50.5 µM | [10] 97.3 µM | [11] 20.4 µM | [12] > 100 µM | [13] 22.8 µM | [14] 35.5 µM | [15] 61.7 µM | [16] 55.8 µM | [17] 46.2 µM | [18] 63.8 µM | [19] 42.8 µM | [20] 41 µM

Cc1ccc(NC(=O)CSc2nc(O)nc3[nH]cnc23)cc1
inactive: [1] 97.5 µM | [2] 62.7 µM | [3] > 100 µM | [4] > 100 µM | [5] > 100 µM | [6] > 100 µM | [7] > 100 µM | [8] > 100 µM | [9] > 100 µM | [10] > 100 µM | [11] > 100 µM | [12] > 100 µM | [13] 86.9 µM | [14] 50.5 µM | [15] > 100 µM | [16] > 100 µM | [17] > 100 µM | [18] > 100 µM | [19] 54.5 µM | [20] > 100 µM

CC[C@]1(Cc2ccc(OC)c(OC)c2)C=[N+]([O-])O[C@H](OC2CCCCC2c2ccccc2)[C@@H]1OC(C)=O (stereo not given in full)
inactive: [1] 31.8 µM | [2] 37.9 µM | [3] 49 µM | [4] 84.9 µM | [5] 57.7 µM | [6] 39.6 µM | [7] 45.1 µM | [8] 21.2 µM | [9] 34.1 µM | [10] 19.9 µM | [11] 24.7 µM | [12] > 100 µM | [13] 38.1 µM | [14] 21.1 µM | [15] 33.4 µM | [16] 22.5 µM | [17] 37.5 µM | [18] 45.3 µM | [19] 70.8 µM | [20] 30.8 µM

Cc1cc2[nH]c(=NS(=O)(=O)c3cc(C)c(Cl)cc3S)[nH]c2cc1C
inactive: [1] 66.4 µM | [2] 53.8 µM | [3] > 100 µM | [4] > 100 µM | [5] > 100 µM | [6] 46.2 µM | [7] > 100 µM | [8] > 100 µM | [9] 51.4 µM | [10] > 100 µM | [11] 82.2 µM | [12] > 100 µM | [13] 32.7 µM | [14] 45.9 µM | [15] > 100 µM | [16] > 100 µM | [17] 16.9 µM | [18] 86.5 µM | [19] > 100 µM | [20] 59.7 µM

O=C1c2ccccc2CC12Cc1ccccc1C2
inactive: [1] 42 µM | [2] > 100 µM | [3] 86.3 µM | [4] > 100 µM | [5] 31.4 µM | [6] 44.9 µM | [7] 23.4 µM | [8] 48.3 µM | [9] 44.1 µM | [10] 44.7 µM | [11] 36.2 µM | [12] 21.9 µM | [13] 16.7 µM | [14] 31.7 µM | [15] 44 µM | [16] 20.6 µM | [17] 57.9 µM | [18] 49.1 µM | [19] 83.2 µM | [20] 34.8 µM
